One data set has as its system Beagle dogs. Kind of data set: Cardiovascular and respiratory function in anesthetized dogs. Format: in vivo, dog. The note with it: for cardiovascular and respiratory changes compared to the vehicle control group: anesthetized Beagle dogs, 2, 10 and 20 mg/kg, infusion through the jugular vein, all doses; for duration of the arterial blood pressure increase / change in arterial blood pressure / deviations in femoral blood flow, respiratory parameters, and Qtc interval: anesthetized Beagle dogs; for duration of the arterial blood pressure increase / change in arterial blood pressure: low dose; for change in arterial blood pressure: i.v. infusion, statistically significant, not seen at higher doses; for deviations in femoral blood flow, respiratory parameters, and Qtc interval: common to both control and treated groups. The text has this:
The effects of 3-(4-amino-1-oxo-1,3-dihydro-isoindol-2-yl)-piperidine-2,6-dione and 4-(amino)-2-(2,6-dioxo-(3-piperidyl))-isoindoline-1,3-dione on cardiovascular and respiratory function were investigated in anesthetized dogs. Two groups of Beagle dogs (2/sex/group) were used. One group received three doses of vehicle only and the other receives three ascending doses of 3-(4-amino-1-oxo-1,3-dihydro-isoindol-2-yl)-piperidine-2,6-dione or 4-(amino)-2-(2,6-dioxo-(3-piperidyl))-isoindoline-1,3-dione (2, 10, and 20 mg/kg). In all cases, doses of 3-(4-amino-1-oxo-1,3-dihydro-isoindol-2-yl)-piperidine-2,6-dione, 4-(amino)-2-(2,6-dioxo-(3-piperidyl))-isoindoline-1,3-dione or vehicle were successively administered via infusion through the jugular vein separated by intervals of at least 30 minutes.

Another data set deals with CRPS patients. Nature of the data set: Clinical study in patients with upper extremity CRPS. Type of data set: in vivo, human. Particulars: 10 mg continuous oral daily dose. As for the experimental part: Immunomodulatory compounds such as 4-(amino)-2-(2,6-dioxo(3-piperidyl))-isoindoline-1,3-dione and 3-(4-amino-1-oxo-1,3-dihydro-isoindol-2-yl)-piperidine-2,6-dione are administered in an amount of 0.1 to 25 mg per day to patients with pain syndromes for three to six months. A baseline evaluation is performed for the effect of the drug treatment on pain intensity, impact of pain on activities of daily living, and consumption of other pain medications.
In a specific embodiment, clinical studies are performed in pain patients who have upper extremity CRPS that has not responded to conventional physical therapy and has been present for at least one year. In the early course of their diseases, patients have clear evidence of autonomic dysfunction with formal autonomic testing (Quantitative sudomotor axon reflex test (QSART), resting sweat output, and thermography). […] Responses are assessed using standard pain scales, e.g., Numeric Pain Scale Assessment (VAS) for pain, quality of life using the McGill Index and objective signs in clinical examination such as a visible reduction of swelling, sweating, discolorations in skin color, temperature changes, changes in skin, hair and nail growth, and fine motor movements. […]

For the next data set, the system named is IL10 production. Nature of the data set: LPS-stimulated production of IL10 by PBMC. Format: cell-based.
For the next data set, the system named is IL6 production. Nature of the data set: LPS-stimulated production of IL6 by PBMC. Type of data set: cell-based.
The test system of data set [1] is TNF-α production. Nature of the data set: Inhibition of TNF-α production following LPS-stimulation of human PBMC. Format: cell-based. Particulars: for IC50: human PBMC, LPS-stimulated, read-out: IC50 for inhibiting production of TNF-α following LPS-stimulation of PBMC. An excerpt: (§1) Inhibitions of TNF-α production following LPS-stimulation of human PBMC and human whole blood by 3-(4-amino-1-oxo-1,3-dihydro-isoindol-2-yl)-piperidine-2,6-dione, 4-(amino)-2-(2,6-dioxo-(3-piperidyl))-isoindoline-1,3-dione and thalidomide were investigated in vitro.

The next data set deals with IL1β production. Kind of data set: LPS-stimulated production of IL1β by PBMC. Type of data set: cell-based.
Data set [2] deals with TNF-α production. Nature of the data set: Inhibition of TNF-α production following LPS-stimulation of human whole blood. Type of data set: cell-based. The note with it: LPS-stimulated, read-out: IC50 for inhibiting production of TNF-α following LPS-stimulation of human whole blood.
Source text: as §1

As for `Nc1cccc2c1CN(C1CCC(=O)NC1=O)C2=O` (stereo not drawn) [3-(4-amino-1-oxo-1,3-dihydro-isoindol-2-yl)-piperidine-2,6-dione], in the data set with Beagle dogs, the “cardiovascular and respiratory changes compared to the vehicle control group” value is recorded as “minimal”; the “duration of the arterial blood pressure increase” value is on record as “approximately 15 minutes”; the “change in arterial blood pressure” value was “small increase”; the “deviations in femoral blood flow, respiratory parameters, and Qtc interval” value was “not considered treatment-related”. In addition, in the data set with CRPS patients, the tolerability entry is “well-tolerated”. Moreover, in the data set on IL10 production, the “effect on production of the anti-inflammatory cytokine IL10” value was “increased production”. Besides, in the data set with IL6 production, the “effect on LPS-stimulated production of IL6 by PBMC” value is recorded as “dose-dependent inhibition”. Further, in the data set with TNF-α production [1], the “effect on LPS-stimulated production of TNF-α by PBMC” value is reported as “dose-dependent inhibition” and the IC50 was around 100 nM. In addition, in the data set with IL1β production, the “effect on LPS-stimulated production of IL1β by PBMC” value was “dose-dependent inhibition”. Also, the IC50 in the data set on TNF-α production [2] is around 480 nM.
As to `Nc1cccc2c1C(=O)N(C1CCC(=O)NC1=O)C2=O` (stereo not drawn) [4-(Amino)-2-(2,6-dioxo(3-piperidyl))-isoindoline-1,3-dione], in the data set on Beagle dogs, the “cardiovascular and respiratory changes compared to the vehicle control group” value is “minimal”; the “duration of the arterial blood pressure increase” value is on record as “approximately 15 minutes”; the “change in arterial blood pressure” value is given as “small increase”; the “deviations in femoral blood flow, respiratory parameters, and Qtc interval” value is “not considered treatment-related”. Further, the “effect on production of the anti-inflammatory cytokine IL10” value in the data set on IL10 production is “increased production”. For the same molecule, in the data set on IL6 production, the “effect on LPS-stimulated production of IL6 by PBMC” value is “dose-dependent inhibition”. For the same molecule, in the data set with TNF-α production [1], the “effect on LPS-stimulated production of TNF-α by PBMC” value is “dose-dependent inhibition” and the IC50 was around 24 nM. For the same molecule, the “effect on LPS-stimulated production of IL1β by PBMC” value in the data set with IL1β production is listed as “dose-dependent inhibition”. Moreover, in the data set with TNF-α production [2], the IC50 is around 25 nM.

What is called IC50 is the midpoint of a concentration-inhibition curve.
